{"source": "patent US12486229B2", "about": "“Indole derivative and application thereof” (SHANGHAI MEDICILON INC., priority 2020, dated 2025)", "key": {"S1P1": {"target": "T1, S1P1 (Homo sapiens, UniProt P21453)", "T1 construct": "host or cells: U2OS (human osteosarcoma) cell line, U2OS-EDG1", "T1 sequence (P21453 whole entry)": "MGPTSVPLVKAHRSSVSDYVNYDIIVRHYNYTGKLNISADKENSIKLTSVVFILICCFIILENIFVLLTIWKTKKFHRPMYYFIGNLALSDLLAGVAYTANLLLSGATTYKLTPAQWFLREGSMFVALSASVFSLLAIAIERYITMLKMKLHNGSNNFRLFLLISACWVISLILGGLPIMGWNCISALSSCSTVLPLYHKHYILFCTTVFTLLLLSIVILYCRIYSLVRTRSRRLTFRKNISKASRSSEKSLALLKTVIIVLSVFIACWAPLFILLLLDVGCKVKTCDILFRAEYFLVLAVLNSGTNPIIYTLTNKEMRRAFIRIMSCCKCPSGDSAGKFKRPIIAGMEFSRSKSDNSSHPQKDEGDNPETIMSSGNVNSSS", "assay": "S1P1 overexpression cell activity by β-arrestin assay (U2OS-EDG1)", "type": "cell-based", "details": "U2OS-EDG1 cells", "protocol": "The following experiments were conducted to detect the activity of the compound on S1P1 overexpression cells by β-arrestin assay. [table] [table] 3. Experimental Steps Day 1: Cell Seeding Plate and Compound Treatment • (1) Firstly, the compound was diluted by a 4-fold gradient into 10 concentration points from the concentration of 10 μM in the culture plate by using NL fluid transfer system, with 2 replicates at each concentration point. • (2) Cells were resuspended by using FreeStyle™ expression medium, and the cell density was adjusted to 7,500 cells per 40 μL suspension. The samples with test concentration were added into the well of the cell culture plate, and 40 μL cell suspension was added into the corresponding well. • (3) The above cell plates were incubated overnight in a CO2 incubator with 5% (volume fraction) at 37° C. Day 2: Detection and Data Analysis • (1) The buffer solution was prepared according to the preparation method in the instructions of LiveBLAser™-fluorescence resonance energy transfer B/G loading kit. • (2) 8 μL detection reagent was added to each well, which were shaken and mixed evenly for 1 minute, centrifugated at 1,000 rpm for 10 seconds, and incubated at 23° C. in dark for 2 hours. • 3) Detection was performed by multimode reader. • 4) The PrismDemo software was used to analyze the data and fit the curve. 4. Experimental Results"}, "[1]": {"test_system": "TNBS induced ulcerative colitis in rats", "assay": "TNBS induced ulcerative colitis in rats", "type": "in vivo, rat", "details": "for Colon length / Colon weight / Colon weight/colon length / Ulcer area: 3 mg/kg oral gavage once a day for 7 days, day 8; for General anatomical view of colon, from excellent to poor: 7 days administration, SASP 360, Example 3 and Etrasimod 3, Ozanimod 10 mg/kg; for Weight: 3 mg/kg oral gavage once a day; for Drug efficacy intensity (colon weight): oral gavage for 7 consecutive days, doses as given in ranking", "protocol": "Preparation of molding agent: 5 mL TNBS and 8.953 mL anhydrous ethanol and 26.741 sterilized water for injection. • TNBS comes from Dalian Meilun Biotechnology Co., Ltd. • Source of SPF male SD rats: Shanghai Slake Experimental Animal Co., Ltd. • Animal age at the beginning of the experiment: 8 to 10 weeks; • Animal weight at the beginning of the experiment: about 250 g; • Adaptation time: 5 to 7 days; • Animals were fasted (only water) for 24 hours. After inhalation anesthesia with isoflurane, all rats were perfused with 0.5 mL TNBS ethanol solution per rat (18 mg TNBS/rat) via rectum with latex hose, with the length of the hose entering the rectum of about 8 cm. After withdrawing the hose, the rats remained under isoflurane anesthesia, and kept in the inclined state of hip elevation for 15 minutes.\nThe rats after modeling were randomly divided into 5 groups: model group, positive control group using drug sulfasalazine (SASP, 360 mg/kg), test substance group using the compound of Example 3 (3 mg/kg), test substance group using Etrasimod (3 mg/kg), test substance group using Ozanimod (10 mg/kg).\nAt 3 hours after modeling, the animals in each group were administrated with medicine solution by oral gavage (Table 1), 5 mL/kg body weight (10 mL/kg in sulfasalazine group), once a day, for 7 consecutive days, and the feces of the animals and whether there is death were observed every day. On the 8th day, the animals were killed under CO2 overdose anesthesia followed by being dissected, the entire colon tissue was extracted, the contents of the colon were cleaned after longitudinal dissection along the mesenteric side, the colon was weighed and measured for its length, the area of the ulcer was measured, and the general situation was observed and photos were taken. Finally, the colon was fixed in 10% formalin, and H&E staining and histopathological analysis (inflammation, goblet cells, lesion depth, ulcer degree, crypt abscess) were performed.\nWherein, the compound of Example 3 of the invention, purity: 99.74%. • Etrasimod, prepared according to the literature method (the second isomer of Example 1.29 in WO2010/011316A1), purity: 98.47%. • Ozanimod, prepared according to the literature method (compound 86 in WO2011/060392A1), purity: 99.78%. • Sulfasalazine enteric-coated tablets, produced by Shanghai Fuda Pharmaceutical Co., Ltd., 0.25 g/tablet. Enteric coated tablets show yellow to brownish yellow after the coating is removed. • Solutol: Beijing Fengli Jingqiu Pharmaceutical Co., Ltd. • Solvent preparation: • DMSO, Solutol and 0.9% sodium chloride solution were mixed according to the volume ratio of 5:10:85 to prepare the solvent.\nPreparation of compound of Example 3 and Etrasimod solution: 27 mg of test substances were taken respectively and dissolved in 45 mL of solvent to obtain corresponding test substance solution.\nOzanimod: 90 mg Ozanimod was dissolved in 45 mL solvent to obtain Ozanimod solution.\nPreparation of SASP solution: six sulfasalazine enteric-coated tablets after grinding were added to 41.7 mL 0.5% CMC-Na, and then dissolved by ultrasonic to obtain SASP solution.\nDue to the excipient factor of SASP drug preparation, the concentration should not be too high when suspended in 0.5% CMC-Na, otherwise the suspension was uneven and the mobility was poor, so the dose volume of SASP was doubled compared with the compound of Example 3 and Etrasimod."}}, "note": "pIC50: −log10 of the molar value.", "data": [{"compound": "O=C(O)C[C@H]1CCc2c1[nH]c1ccc(OCc3ccc(C4CCCC4)c(C(F)(F)F)c3)cc21", "note": "[Etrasimod, reference compound]", "values": [{"measurement": "pIC50", "setting": "S1P1", "result": 8.33}, {"measurement": "Colon length", "setting": "[1]", "result": "13.56 ± 0.54", "unit": "cm"}, {"measurement": "Colon weight", "setting": "[1]", "result": "2.54 ± 0.25", "unit": "g"}, {"measurement": "Colon weight/colon length", "setting": "[1]", "result": 0.19, "unit": "g/cm"}, {"measurement": "Ulcer area", "setting": "[1]", "result": "177.97 ± 56.5", "unit": "mm^2"}, {"measurement": "General anatomical view of colon, from excellent to poor", "setting": "[1]", "result": "group using compound of Example 3>group using sulfasalazine>group using Etrasimod>group using Ozanimod"}, {"measurement": "Weight", "setting": "[1]; Day 1", "result": "251.6 ± 0.5", "unit": "g"}, {"measurement": "Weight", "setting": "[1]; Day 2", "result": "225.5 ± 0.56", "unit": "g"}, {"measurement": "Weight", "setting": "[1]; Day 3", "result": "223.9 ± 0.94", "unit": "g"}, {"measurement": "Weight", "setting": "[1]; Day 4", "result": "221.8 ± 1.51", "unit": "g"}, {"measurement": "Weight", "setting": "[1]; Day 5", "result": "224.4 ± 1.73", "unit": "g"}, {"measurement": "Weight", "setting": "[1]; Day 6", "result": "230.1 ± 2.04", "unit": "g"}, {"measurement": "Weight", "setting": "[1]; Day 7", "result": "245.5 ± 1.85", "unit": "g"}, {"measurement": "Weight", "setting": "[1]; Day 8", "result": "255.8 ± 1.6", "unit": "g"}, {"measurement": "Drug efficacy intensity (colon weight)", "setting": "[1]", "result": "group using the compound of Example 3 (3 mg/kg)>group using Etrasimod (3 mg/kg)>group using sulfasalazine (360 mg/kg)>model group>group using Ozanimod (10 mg/kg)"}]}, {"compound": "O=C(O)CCn1ccc2cc(OCc3ccc(C4CCCC4)c(C(F)(F)F)c3)cc(Cl)c21", "note": "[Compound of Example 3, 3-(7-chlorine-5-((4-cyclopentyl-3-(trifluoromethyl)benzyl)oxy)-1H-indole-1-yl)propionic acid]", "values": [{"measurement": "pIC50", "setting": "S1P1", "result": 9.83}, {"measurement": "Colon length", "setting": "[1]", "result": "13.66 ± 0.63", "unit": "cm"}, {"measurement": "Colon weight", "setting": "[1]", "result": "2.07 ± 0.17", "unit": "g"}, {"measurement": "Colon weight/colon length", "setting": "[1]", "result": 0.15, "unit": "g/cm"}, {"measurement": "Ulcer area", "setting": "[1]", "result": "53.87 ± 24.01", "unit": "mm^2"}, {"measurement": "General anatomical view of colon, from excellent to poor", "setting": "[1]", "result": "group using compound of Example 3>group using sulfasalazine>group using Etrasimod>group using Ozanimod"}, {"measurement": "Weight", "setting": "[1]; Day 1", "result": "247 ± 0.55", "unit": "g"}, {"measurement": "Weight", "setting": "[1]; Day 2", "result": "224.6 ± 0.51", "unit": "g"}, {"measurement": "Weight", "setting": "[1]; Day 3", "result": "226.3 ± 0.85", "unit": "g"}, {"measurement": "Weight", "setting": "[1]; Day 4", "result": "233.6 ± 1.45", "unit": "g"}, {"measurement": "Weight", "setting": "[1]; Day 5", "result": "238.5 ± 1.57", "unit": "g"}, {"measurement": "Weight", "setting": "[1]; Day 6", "result": "245 ± 1.74", "unit": "g"}, {"measurement": "Weight", "setting": "[1]; Day 7", "result": "258.8 ± 1.61", "unit": "g"}, {"measurement": "Weight", "setting": "[1]; Day 8", "result": "267.9 ± 1.44", "unit": "g"}, {"measurement": "Weight course compared with model group", "setting": "[1]; SASP 360 mg/kg, Example 3 and Etrasimod 3 mg/kg, oral once a day", "result": "a certain tendency to inhibit the weight loss"}, {"measurement": "Drug efficacy intensity (colon weight)", "setting": "[1]", "result": "group using the compound of Example 3 (3 mg/kg)>group using Etrasimod (3 mg/kg)>group using sulfasalazine (360 mg/kg)>model group>group using Ozanimod (10 mg/kg)"}]}]}
